Measured values reported in patent publication US20170319641A1, “MUCOADHESIVE EMOLLIENT” (BIOGLAN AB, priority 2014, published 2017).

Tests used:
[1] = pure liquids at 25° C.; cited from earlier work
[2] = system: Mucin; assay: Mucoadhesion, tensile strength with texture analyzer, towards mucin; details: upper sample Mucin
Description: Mucoadhesion is related to the ability to adhere to the mucosa. […] Hygroscopic formulations absorbs water molecules but at different timescales depending on the composition. Tensile strength using micro balance texture analyzer was used to measure the mucoadhesion. The work needed to separate two layers from each other is calculated as well as the peak measured force.
The microemulsions show quite strong mucoadhesion, with similar tensile strength values. To get some reference values, the mucoadhesion of olive oil, propylene glycol and PGMO were also tested as well as the adhesion of microemulsions towards water. Propylene glycol was chosen to determine if humectant properties on its own had any influence on the adhesion strength.

SMILES: OCC(O)CO [glycerol]
- Surface tension [1]: 76 mN/m

SMILES: CC(O)CO (stereo not shown) [Propylene Glycol, propylene glycol]
- Peak force [2]: 0.50 ± 0.05 kg
- Mucoadhesion ([2]; work needed to separate layers): 0.051 ± 0.009 kg·s
- Surface tension [1]: 45.6 mN/m
